Data set [1] concerns α1L adrenoceptor. The experiment in a line: Functional antagonism of noradrenaline-induced contractions of rabbit aorta pretreated with chloroethylclonidine. It counts as biochemical. Particulars: functional affinity, NA-induced contractions. The procedure:
Adult male New Zealand rabbits were sacrificed by cervical dislocation. The aorta was removed, placed in Krebs-Henseleit buffer and dissected free of adhering tissue.
Each antagonist concentration was tested using 2-3 aortic rings from different rabbits.
Dose ratios (i.e., the ratio between the concentrations of noradrenaline required to produce half-maximal response in the presence and in the absence of the test antagonist) were calculated at each concentration of the compounds.

Data set [2] relates to urethral contractions (UP) induced by noradrenaline (NA). The experiment in a line: Urethral contractions induced by noradrenaline injection in anaesthetised dogs, i.v. administration. In kind it is in vivo. As to conditions: dog; for ED50: Canis lupus familiaris, iv, dose inhibiting by 50% urethral contractions induced by noradrenaline, read-out: UP ID50 NA; for R1 (DBP/NA): ratio DBP ED25 / UP ID50 NA. Here is the method:
(§1) The experiments were performed according to the method of Imagawa J. et al., J Pharmacol. Methods 22, 103-111 (1989), with substantial modifications, as follows: adult male beagle dogs, weighing 8-10 kg, were anaesthetised with pentobarbital sodium (30 mg/kg i.v. and 2 mg/kg/h i.v.), intubated and spontaneously ventilated with room air. In order to monitor systemic blood pressure (BP), a polyethylene (PE) catheter was introduced into the aortic arch through the left femoral artery. A collateral of the left femoral vein was cannulated for infusion of anaesthetic, and the right femoral vein was cannulated for administration of the compounds. For intraarterial (i.a.) injection of noradrenaline (NA), a PE catheter was introduced into the lower portion of the abdominal aorta via the right external iliac artery. Through such procedure, NA was selectively distributed to the lower urinary tract. A paramedian vertical suprapubic incision extending from the base of the pelvis to the mid-abdominal region was made and the bladder and the prostate were exposed. The bladder was manually emptied with a syringe. […] The distal end of the right or left branch of the nerve was placed on a bipolar platinum electrode. Prostatic urethral pressure was monitored with a Mikro-tip cathe[…]) introduced into the bladder via the external urethral meatus, and withdrawn until the pressure transducer was positioned in the prostatic region of the urethra. A ligature was secured between the neck of the bladder and urethra to isolate the response of the latter and to avoid any interaction with the bladder. Another ligature was put around the Mikro-tip catheter at the external meatus, to secure the catheter itself. […] Both i.a. injections of NA and stimulations of the hypogastric nerve were repeated 5 minutes after every dosing of test compound with intervals of about 5 minutes between two stimulations. In order to compare the effects of the administered compound, dose/response curves were constructed by computing, at the peak effect, the percent decrease in diastolic blood pressure and the percent inhibition of the increase in urethral pressure induced by both types of stimulation used.

In data set [3] the test system is urethral contractions (UP) induced by hypogastric-nerve stimulation (HYP). The experiment in a line: Urethral contractions induced by hypogastric-nerve stimulation in anaesthetised dogs, i.v. administration. Particulars: Canis lupus familiaris, iv, dog, dose inhibiting by 50% urethral contractions induced by hypogastric-nerve stimulation, read-out: UP ID50 HYP. In kind it is in vivo. Here is the method:
as §1, with “In order to compare the effects of the administered compound, dose/response curves were constructed by computing, at the peak effect, the percent decrease in diastolic blood pressure and the percent inhibition of the increase in urethral pressure induced by both types of stimulation used.” left out

In data set [4] the test system is diastolic blood pressure (DBP). The experiment in a line: Effect on diastolic blood pressure in anaesthetised dogs, i.v. administration. In kind it is in vivo. As to conditions: dog, dose inducing a 25% decrease in diastolic blood pressure, one value spanning c3 and c4. The procedure:
The experiments were performed according to the method of Imagawa J. et al., J Pharmacol. Methods 22, 103-111 (1989), with substantial modifications, as follows: adult male beagle dogs, weighing 8-10 kg, were anaesthetised with pentobarbital sodium (30 mg/kg i.v. and 2 mg/kg/h i.v.), intubated and spontaneously ventilated with room air. In order to monitor systemic blood pressure (BP), a polyethylene (PE) catheter was introduced into the aortic arch through the left femoral artery. A collateral of the left femoral vein was cannulated for infusion of anaesthetic, and the right femoral vein was cannulated for administration of the compounds. For intraarterial (i.a.) injection of noradrenaline (NA), a PE catheter was introduced into the lower portion of the abdominal aorta via the right external iliac artery. Through such procedure, NA was selectively distributed to the lower urinary tract. A paramedian vertical suprapubic incision extending from the base of the pelvis to the mid-abdominal region was made and the bladder and the prostate were exposed. The bladder was manually emptied with a syringe. […] The distal end of the right or left branch of the nerve was placed on a bipolar platinum electrode. Prostatic urethral pressure was monitored with a Mikro-tip catheter (5F) introduced into the bladder via the external urethral meatus, and withdrawn until the pressure transducer was positioned in the prostatic region of the urethra. A ligature was secured between the neck of the bladder and urethra to isolate the response of the latter and to avoid any interaction with the bladder. Another ligature was put around the Mikro-tip catheter at the external meatus, to secure the catheter itself. The hypogastric nerve stimulation was made with a train of rectangular pulses of 10-15 V, 10-30 Hz, width 5 msec, 8 sec duration.
After a stabilising period following the surgical procedure (30 minutes), in which arterial and prostatic urethral pressure were continuously monitored as basal values, i.a. administration of NA and stimulation of the hypogastric nerve were alternately made at intervals of 10 minutes.
The dose of NA and the parameter of hypogastric nerve stimulation chosen were such as to produce an increase of at least 100% in urethral pressure. The test compounds were administered i.v. in a cumulative manner with intervals of 15-20 min between administrations. Both i.a. injections of NA and stimulations of the hypogastric nerve were repeated 5 minutes after every dosing of test compound with intervals of about 5 minutes between two stimulations. […]

The target in data set [5] is T1, α1a adrenergic receptor (Homo sapiens, UniProt P35348).
T1 sequence (P35348 1-466): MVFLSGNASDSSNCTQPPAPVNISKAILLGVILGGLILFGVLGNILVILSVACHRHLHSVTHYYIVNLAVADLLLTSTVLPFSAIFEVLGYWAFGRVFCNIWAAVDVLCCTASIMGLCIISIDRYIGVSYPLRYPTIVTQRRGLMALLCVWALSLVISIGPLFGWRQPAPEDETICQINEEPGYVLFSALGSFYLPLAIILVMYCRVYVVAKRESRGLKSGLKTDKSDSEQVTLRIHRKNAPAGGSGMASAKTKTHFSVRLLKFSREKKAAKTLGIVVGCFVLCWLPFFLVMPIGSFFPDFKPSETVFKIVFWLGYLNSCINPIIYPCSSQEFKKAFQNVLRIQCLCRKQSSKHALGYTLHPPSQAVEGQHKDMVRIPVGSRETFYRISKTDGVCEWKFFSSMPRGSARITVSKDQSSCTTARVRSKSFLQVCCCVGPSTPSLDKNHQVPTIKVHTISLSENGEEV
The experiment in a line: Radioligand binding assay ([3H]prazosin) on cloned α1-adrenoceptor subtype, membranes of transfected cells.
Procedure: (§2) Determination of affinity for cloned subtypes of the cloned α1-adrenoceptor was performed in membranes from cells transfected by electroporation with DNA expressing the genes encoding each α1-adrenoceptor subtype.
(§3) Non-specific binding was determined in the presence of 10 µM phentolamine. Incubation was stopped by addition of ice-cold Tris buffer and rapid filtration through 0.2%-polyethyleneimine pretreated Schleicher & Schuell GF52 filters. […] The homogenates were centrifuged at 40000 × g × 20 minutes and the membranes were resuspended in a small volume of ice-cold buffer containing Tris 5 mM and EDTA 5 mM (pH 7.4) and immediately frozen and stored at -70°C until use.
Data were expressed as mean of Ki.

The target of data set [6] is T2, recombinant α1d-adrenoceptor (Homo sapiens, UniProt P25100).
T2 sequence (P25100 1-572): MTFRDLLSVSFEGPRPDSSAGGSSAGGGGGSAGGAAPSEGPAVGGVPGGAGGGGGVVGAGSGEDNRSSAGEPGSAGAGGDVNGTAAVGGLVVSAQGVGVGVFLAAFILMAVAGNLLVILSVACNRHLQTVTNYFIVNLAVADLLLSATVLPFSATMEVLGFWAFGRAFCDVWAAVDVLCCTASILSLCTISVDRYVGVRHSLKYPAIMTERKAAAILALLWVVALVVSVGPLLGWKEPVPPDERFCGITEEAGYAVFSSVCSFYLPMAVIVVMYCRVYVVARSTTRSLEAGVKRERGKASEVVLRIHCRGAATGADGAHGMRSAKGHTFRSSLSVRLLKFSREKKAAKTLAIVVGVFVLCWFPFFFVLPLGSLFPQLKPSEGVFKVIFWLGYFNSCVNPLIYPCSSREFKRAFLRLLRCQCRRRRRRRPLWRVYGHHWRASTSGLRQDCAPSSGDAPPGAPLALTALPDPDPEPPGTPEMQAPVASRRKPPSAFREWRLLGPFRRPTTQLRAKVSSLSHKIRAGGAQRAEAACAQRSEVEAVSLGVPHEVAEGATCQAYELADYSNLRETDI
Described as above.
Procedure: as §2, §3
Data were expressed as mean of Ki.

Each structure is given as a SMILES string.

The results in this text go back to patent publication EP1226131B1, “ISOXAZOLECARBOXAMIDE DERIVATIVES” (RECORDATI INDUSTRIA CHIMICA E FARMACEUTICA S.p.a., priority 1999, dated 2001).

Turning to `Cc1onc(-c2ccccc2)c1C(=O)NCCCN1CCN(c2ccccc2OCC(F)(F)F)CC1` [Example 3, 5-Methyl-3-phenyl-N-{3-[4-[2-(2,2,2-trifluoroethoxy)-phenyl]-1-piperazinyl]-propyl}isoxazole-4-carboxamide], in data set [1], the negative-log Kb (pKb) worked out at 8.47. The ED50 worked out at 1.3 µg/kg in data set [2] and 2.4 µg/kg in data set [3]. Besides, the “R1 (DBP/NA)” value in data set [2] is given as 396. Moreover, in data set [4], the “DBP ED25” value amounted to 514.7 µg/kg. Also, the Ki in data set [5] stood at 66 pM; in data set [6], 1450 pM.
Turning to `Cc1onc(-c2ccccc2)c1C(=O)NCCCN1CCN(c2cc(F)ccc2OCC(F)(F)F)CC1` [Example 5, N-{3-[4-[5-Fluoro-2-(2,2,2-trifluoroethoxy)-phenyl]-1-piperazinyl]-propyl}-5-methyl-3-phenylisoxazole-4-carboxamide], in data set [1], the pKb was 8.79. Further, the ED50 was 2.7 µg/kg in data set [2] and 3.4 µg/kg in data set [3]. The “R1 (DBP/NA)” value in data set [2] was found to be 73. Further, the “DBP ED25” value in data set [4] was 197.0 µg/kg.

Broadly, the pKb is the negative decadic logarithm of the Kb, by convention in mol/L. What is called Ki is the equilibrium dissociation constant of an inhibitor or competing ligand from its target.
